Reference: PubChem BioAssay (NCI)
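Method: 48-hour compound exposure of cells in 96-well plates, five concentrations, linear interpolation of endpoints. TGI marks complete inhibition of growth.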

How the values were obtained:
Assay in all cases: NCI anticancer screen, dose series, 48 h
PC-3 prostate = system: PC-3 prostate
MDA-N = system: MDA-N
HL-60(TB) leukemia = system: HL-60(TB) leukemia
SN12C renal = system: SN12C renal
UACC-257 melanoma = system: UACC-257 melanoma
786-0 renal = system: 786-0 renal
SR leukemia = system: SR leukemia
EKVX NSCLC = system: EKVX NSCLC
CCRF-CEM leukemia = system: CCRF-CEM leukemia
NCI-H23 lung = system: NCI-H23 lung
SK-OV-3 ovarian = system: SK-OV-3 ovarian
SW-620 colon = system: SW-620 colon
HCT-116 colon = system: HCT-116 colon
SNB-75 CNS = system: SNB-75 CNS
OVCAR-5 ovarian = system: OVCAR-5 ovarian
UACC-62 melanoma = system: UACC-62 melanoma
M14 melanoma = system: M14 melanoma
HCT-15 colon = system: HCT-15 colon
SK-MEL-5 melanoma = system: SK-MEL-5 melanoma
SF-268 CNS = system: SF-268 CNS
NCI-H226 lung = system: NCI-H226 lung
SF-295 CNS = system: SF-295 CNS
OVCAR-8 ovarian = system: OVCAR-8 ovarian
K-562 leukemia = system: K-562 leukemia
MDA-MB-231 breast = system: MDA-MB-231 breast
SF-539 CNS = system: SF-539 CNS
HCC-2998 colon = system: HCC-2998 colon
NCI-H460 lung = system: NCI-H460 lung
HOP-62 NSCLC = system: HOP-62 NSCLC
IGROV1 ovarian = system: IGROV1 ovarian
RPMI-8226 leukemia = system: RPMI-8226 leukemia
OVCAR-3 ovarian = system: OVCAR-3 ovarian
A498 renal = system: A498 renal
U251 CNS = system: U251 CNS
KM12 colon = system: KM12 colon
RXF 393 renal = system: RXF 393 renal
HS 578T breast = system: HS 578T breast
COLO 205 colon = system: COLO 205 colon
NCI/ADR-RES ovarian = system: NCI/ADR-RES ovarian
HT29 colon = system: HT29 colon
TK-10 renal = system: TK-10 renal
MCF7 breast = system: MCF7 breast
SK-MEL-28 melanoma = system: SK-MEL-28 melanoma
ACHN renal = system: ACHN renal
SK-MEL-2 melanoma = system: SK-MEL-2 melanoma
HOP-92 NSCLC = system: HOP-92 NSCLC
MOLT-4 leukemia = system: MOLT-4 leukemia
LOX IMVI melanoma = system: LOX IMVI melanoma
DU-145 prostate = system: DU-145 prostate
MALME-3M melanoma = system: MALME-3M melanoma
NCI-H522 lung = system: NCI-H522 lung
MDA-MB-435 = system: MDA-MB-435
CAKI-1 renal = system: CAKI-1 renal
OVCAR-4 ovarian = system: OVCAR-4 ovarian
A549 NSCLC = system: A549 NSCLC
SNB-19 CNS = system: SNB-19 CNS
T-47D breast = system: T-47D breast
UO-31 renal = system: UO-31 renal

CCOC(CNc1nn2c(C)nnc2s1)OCC
TGI (PC-3 prostate): > 100 µM
TGI (MDA-N): > 100 µM
TGI (HL-60(TB) leukemia): > 100 µM
TGI (SN12C renal): > 100 µM
TGI (UACC-257 melanoma): > 100 µM
TGI (786-0 renal): > 100 µM
TGI (SR leukemia): > 100 µM
TGI (EKVX NSCLC): > 100 µM
TGI (CCRF-CEM leukemia): > 100 µM
TGI (NCI-H23 lung): > 100 µM
TGI (SK-OV-3 ovarian): > 100 µM
TGI (SW-620 colon): > 100 µM
TGI (HCT-116 colon): > 100 µM
TGI (SNB-75 CNS): > 100 µM
TGI (OVCAR-5 ovarian): > 100 µM
TGI (UACC-62 melanoma): > 100 µM
TGI (M14 melanoma): > 100 µM
TGI (HCT-15 colon): > 100 µM
TGI (SK-MEL-5 melanoma): > 100 µM
TGI (SF-268 CNS): > 100 µM
TGI (NCI-H226 lung): > 100 µM
TGI (SF-295 CNS): > 100 µM
TGI (OVCAR-8 ovarian): > 100 µM
TGI (K-562 leukemia): > 100 µM
TGI (MDA-MB-231 breast): > 100 µM
TGI (SF-539 CNS): > 100 µM
TGI (HCC-2998 colon): > 100 µM
TGI (NCI-H460 lung): > 100 µM
TGI (HOP-62 NSCLC): > 100 µM
TGI (IGROV1 ovarian): > 100 µM
TGI (RPMI-8226 leukemia): > 100 µM
TGI (OVCAR-3 ovarian): > 100 µM
TGI (A498 renal): > 100 µM
TGI (U251 CNS): > 100 µM
TGI (KM12 colon): > 100 µM
TGI (RXF 393 renal): > 100 µM
TGI (HS 578T breast): > 100 µM
TGI (COLO 205 colon): > 100 µM
TGI (NCI/ADR-RES ovarian): > 100 µM
TGI (HT29 colon): > 100 µM
TGI (TK-10 renal): > 100 µM
TGI (MCF7 breast): > 100 µM
TGI (SK-MEL-28 melanoma): > 100 µM
TGI (ACHN renal): > 100 µM
TGI (SK-MEL-2 melanoma): > 100 µM
TGI (HOP-92 NSCLC): > 100 µM
TGI (MOLT-4 leukemia): > 100 µM
TGI (LOX IMVI melanoma): > 100 µM
TGI (DU-145 prostate): > 100 µM
TGI (MALME-3M melanoma): > 100 µM
TGI (NCI-H522 lung): > 100 µM
TGI (MDA-MB-435): > 100 µM
TGI (CAKI-1 renal): > 100 µM
TGI (OVCAR-4 ovarian): > 100 µM
TGI (A549 NSCLC): > 100 µM
TGI (SNB-19 CNS): > 100 µM

CC/C=C/C(CC)C/C(C)=C\[C@]1(CC)C[C@H](CC)[C@H](CC(=O)O)OO1 (stereo not given in full)
TGI (PC-3 prostate): 1.24 µM
TGI (MDA-N): 2.71 µM
TGI (HL-60(TB) leukemia): 2.27 µM
TGI (SN12C renal): 3.05 µM
TGI (UACC-257 melanoma): 11.1 µM
TGI (786-0 renal): 2.61 µM
TGI (T-47D breast): 2.99 µM
TGI (SR leukemia): 0.287 µM
TGI (CCRF-CEM leukemia): 0.41 µM
TGI (NCI-H23 lung): 3.05 µM
TGI (SK-OV-3 ovarian): 3.3 µM
TGI (SW-620 colon): 1.42 µM
TGI (HCT-116 colon): 1.43 µM
TGI (OVCAR-5 ovarian): 2.64 µM
TGI (UACC-62 melanoma): 3.07 µM
TGI (M14 melanoma): 3.6 µM
TGI (HCT-15 colon): 1.62 µM
TGI (UO-31 renal): 0.0368 µM
TGI (SK-MEL-5 melanoma): 2.54 µM
TGI (SF-268 CNS): 2.9 µM
TGI (NCI-H226 lung): 4.58 µM
TGI (SF-295 CNS): 1.19 µM
TGI (OVCAR-8 ovarian): 3.23 µM
TGI (K-562 leukemia): 1.48 µM
TGI (MDA-MB-231 breast): 3.31 µM
TGI (SF-539 CNS): 2.93 µM
TGI (NCI-H460 lung): 0.36 µM
TGI (HOP-62 NSCLC): 2.2 µM
TGI (IGROV1 ovarian): 0.208 µM
TGI (RPMI-8226 leukemia): 0.395 µM
TGI (OVCAR-3 ovarian): 2.48 µM
TGI (A498 renal): 3.07 µM
TGI (U251 CNS): 1.79 µM
TGI (KM12 colon): 0.235 µM
TGI (HS 578T breast): 5.31 µM
TGI (COLO 205 colon): 2.72 µM
TGI (NCI/ADR-RES ovarian): 1.84 µM
TGI (HT29 colon): 1.83 µM
TGI (MCF7 breast): 3.58 µM
TGI (ACHN renal): 0.641 µM
TGI (SK-MEL-2 melanoma): 3.22 µM
TGI (MOLT-4 leukemia): 0.494 µM
TGI (LOX IMVI melanoma): 0.129 µM
TGI (DU-145 prostate): 1.64 µM
TGI (NCI-H522 lung): 0.331 µM
TGI (MDA-MB-435): 2.8 µM
TGI (CAKI-1 renal): 0.967 µM
TGI (A549 NSCLC): 0.281 µM
TGI (SNB-19 CNS): 3.34 µM

O=c1c2ccccc2n2c(-c3ccc(O)cc3)nnc2n1-c1ccccc1
TGI (PC-3 prostate): 33.6 µM
TGI (MDA-N): 34.1 µM
TGI (HL-60(TB) leukemia): > 100 µM
TGI (SN12C renal): 32.2 µM
TGI (UACC-257 melanoma): 41.8 µM
TGI (786-0 renal): 33.7 µM
TGI (T-47D breast): 34.8 µM
TGI (SR leukemia): 46.2 µM
TGI (EKVX NSCLC): 34.7 µM
TGI (CCRF-CEM leukemia): 51.3 µM
TGI (NCI-H23 lung): 37.7 µM
TGI (SK-OV-3 ovarian): 38.3 µM
TGI (SW-620 colon): 29.8 µM
TGI (HCT-116 colon): 41.2 µM
TGI (SNB-75 CNS): 38.5 µM
TGI (OVCAR-5 ovarian): > 100 µM
TGI (UACC-62 melanoma): 38.9 µM
TGI (M14 melanoma): 39.8 µM
TGI (HCT-15 colon): 50.7 µM
TGI (UO-31 renal): 6.83 µM
TGI (SK-MEL-5 melanoma): 37.2 µM
TGI (SF-268 CNS): 38.9 µM
TGI (NCI-H226 lung): 53.6 µM
TGI (SF-295 CNS): 31.5 µM
TGI (OVCAR-8 ovarian): 90.6 µM
TGI (K-562 leukemia): 26.2 µM
TGI (MDA-MB-231 breast): 40.3 µM
TGI (SF-539 CNS): 33.9 µM
TGI (HCC-2998 colon): > 100 µM
TGI (NCI-H460 lung): 40 µM
TGI (HOP-62 NSCLC): 41 µM
TGI (IGROV1 ovarian): 34.9 µM
TGI (OVCAR-3 ovarian): 39.5 µM
TGI (A498 renal): 31.6 µM
TGI (U251 CNS): 32.4 µM
TGI (KM12 colon): > 100 µM
TGI (RXF 393 renal): 39.4 µM
TGI (COLO 205 colon): > 100 µM
TGI (NCI/ADR-RES ovarian): 48.5 µM
TGI (HT29 colon): 43.9 µM
TGI (TK-10 renal): 43.5 µM
TGI (SK-MEL-28 melanoma): 43.3 µM
TGI (ACHN renal): 30 µM
TGI (SK-MEL-2 melanoma): 40.9 µM
TGI (HOP-92 NSCLC): 45.6 µM
TGI (MOLT-4 leukemia): > 100 µM
TGI (LOX IMVI melanoma): 55.4 µM
TGI (DU-145 prostate): 40.1 µM
TGI (MALME-3M melanoma): 42.6 µM
TGI (NCI-H522 lung): 38.8 µM
TGI (MDA-MB-435): 36.2 µM
TGI (CAKI-1 renal): 65 µM
TGI (OVCAR-4 ovarian): 45.3 µM
TGI (A549 NSCLC): 38.6 µM
TGI (SNB-19 CNS): 39.7 µM
